Reference: ChEMBL document CHEMBL5352409, “Design, synthesis, and pharmacological evaluation of 2-(1-(1,3,4-thiadiazol-2-yl)piperidin-4-yl)ethan-1-ol analogs as novel glutaminase 1 inhibitors” (Eur J Med Chem, 2022)
Active and inactive are the calls of the source. No cut-off for these calls is given here.

Experiments:
A549 [1] = assay: Induction of cell cycle arrest in human A549 cells assessed as accumulation of cells at G0/G1 phase at 400 nM incubated for 48 hrs by propidium iodide staining based flow cytometry analysis (Rvb=61.61%); assay type: functional
in vitro = conditions: human, liver microsomes
A549 [2] = assay: Inhibition of glutaminase in human A549 cells assessed as ratio of glutamine to glutamate level (Rv b= 0.45 +/- 0.011); assay type: cell-based
HCT-116 [3] = assay: cells; conditions: Homo sapiens
[4] = target: T1, Glutaminase kidney isoform, mitochondrial (Homo sapiens, UniProt O94925); assay: Inhibition of GLS1 (unknown origin)
T1 sequence (O94925 whole entry): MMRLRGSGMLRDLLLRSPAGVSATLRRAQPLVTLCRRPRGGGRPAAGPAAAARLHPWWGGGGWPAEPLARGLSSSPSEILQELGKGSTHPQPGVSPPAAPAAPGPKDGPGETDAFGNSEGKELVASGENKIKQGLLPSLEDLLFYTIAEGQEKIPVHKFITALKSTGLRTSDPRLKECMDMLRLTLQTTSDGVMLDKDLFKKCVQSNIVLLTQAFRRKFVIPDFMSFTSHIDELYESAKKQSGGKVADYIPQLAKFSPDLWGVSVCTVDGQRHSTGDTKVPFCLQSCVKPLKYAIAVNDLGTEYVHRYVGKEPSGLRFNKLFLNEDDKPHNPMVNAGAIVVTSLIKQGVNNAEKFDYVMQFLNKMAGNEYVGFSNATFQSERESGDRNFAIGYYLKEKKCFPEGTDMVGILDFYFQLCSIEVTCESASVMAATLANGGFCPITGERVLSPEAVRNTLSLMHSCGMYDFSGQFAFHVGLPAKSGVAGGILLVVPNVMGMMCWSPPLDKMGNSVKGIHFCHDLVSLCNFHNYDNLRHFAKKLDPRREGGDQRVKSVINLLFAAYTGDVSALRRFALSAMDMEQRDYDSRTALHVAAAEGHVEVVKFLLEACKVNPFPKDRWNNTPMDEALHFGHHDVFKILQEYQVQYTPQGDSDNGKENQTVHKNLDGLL

A549 [5] = assay: Induction of cell cycle arrest in human A549 cells assessed as accumulation of cells at S phase at 100 nM incubated for 48 hrs by propidium iodide staining based flow cytometry analysis (Rvb=14.51%); assay type: functional
[6] = Clearance in rat at 3 mg/kg, iv; assay type: ADME, organism-based; conditions: in vivo
Homo sapiens = species on record: Homo sapiens; assay: Selectivity ratio of IC50 for GLS2 (unknown origin) to IC50 for GLS1 (unknown origin)
A549 [7] = assay: Induction of cell cycle arrest in human A549 cells assessed as accumulation of cells at S phase at 400 nM incubated for 48 hrs by propidium iodide staining based flow cytometry analysis (Rvb=14.51%); assay type: functional
A549 [8] = assay: Induction of cell cycle arrest in human A549 cells assessed as accumulation of cells at S phase at 50 nM incubated for 48 hrs by propidium iodide staining based flow cytometry analysis (Rvb=14.51%); assay type: functional
[9] = Clearance in rat at 3 mg/kg, po; assay type: ADME, organism-based; conditions: in vivo
A549 [10] = assay: Induction of apoptosis in human A549 cells assessed as early apoptotic cells at 5 uM incubated for 48 hrs by annexin V-FITC and propidium iodide based flow cytometry analysis (Rvb =12.289%); assay type: functional
[11] = Terminal half life in rat at 3 mg/kg, po; assay type: ADME, organism-based; conditions: in vivo, read-out: beta t1/2 (converted)
HCT-116 [12] = assay: Antitumor activity against human HCT-116 cells xenografted in mouse model assessed as reduction in tumor cells at 100 mg/kg administered via oral gavage for 28 days; assay type: functional, organism-based; conditions: time 28.0 day
A549 [13] = assay: Antiproliferative activity against human A549 cells assessed as reduction in cell viability; assay type: functional, cell-based
A549 [14] = assay: Induction of apoptosis in human A549 cells assessed as late apoptotic cells at 5 uM incubated for 48 hrs by annexin V-FITC and propidium iodide based flow cytometry analysis (Rvb =9.696%); assay type: functional
A549 [15] = assay: Induction of apoptosis in human A549 cells assessed as early apoptotic cells at 1 uM incubated for 48 hrs by annexin V-FITC and propidium iodide based flow cytometry analysis (Rvb =12.289%); assay type: functional
HCT-116 [16] = assay: Inhibition of colony formation in human HCT-116 cells at 2 to 8 uM; assay type: functional, cell-based; conditions: dose 2-8 µM
A549 [17] = assay: Induction of apoptosis in human A549 cells assessed as early apoptotic cells at 10 uM incubated for 48 hrs by annexin V-FITC and propidium iodide based flow cytometry analysis (Rvb =12.289%); assay type: functional
[18] = Cmax in rat at 3 mg/kg, iv; assay type: ADME, organism-based; set-up: dose 3 mg/kg, route iv; conditions: in vivo
A549 [19] = assay: Induction of cell cycle arrest in human A549 cells assessed as accumulation of cells at G2/M phase at 100 nM incubated for 48 hrs by propidium iodide staining based flow cytometry analysis (Rvb=23.88%); assay type: functional
A549 [20] = assay: Induction of cell cycle arrest in human A549 cells assessed as accumulation of cells at S phase at 200 nM incubated for 48 hrs by propidium iodide staining based flow cytometry analysis (Rvb=14.51%); assay type: functional
[21] = Toxicity in human A549 cells xenografted in mouse assessed as body weight loss at 100 mg/kg administered via oral gavage for 28 days relative to control; assay type: organism-based; conditions: in vivo, 672 h, time 28 day
[22] = Terminal half life in rat at 3 mg/kg, iv; assay type: ADME, organism-based; conditions: in vivo, read-out: beta t1/2 (converted)
[23] = AUC(0 to t) in rat at 3 mg/kg, po; assay type: ADME, organism-based; set-up: dose 3 mg/kg, route po; conditions: in vivo
A549 [24] = assay: Inhibition of colony formation in human A549 cells at 2 to 8 uM; assay type: functional, cell-based; conditions: dose 2-8 µM
A549 [25] = assay: Induction of cell cycle arrest in human A549 cells assessed as accumulation of cells at S phase at 800 nM incubated for 48 hrs by propidium iodide staining based flow cytometry analysis (Rvb=14.51%); assay type: functional
HCT-116 [26] = assay: Induction of intracellular ROS production in human HCT-116 cells by DCFH-DA staining based fluorescence microscopic analysis; assay type: functional, cell-based; conditions: dose 1-10 µM
A549 [27] = assay: Induction of cell cycle arrest in human A549 cells assessed as accumulation of cells at G0/G1 phase at 200 nM incubated for 48 hrs by propidium iodide staining based flow cytometry analysis (Rvb=61.61%); assay type: functional
A549 [28] = assay: Induction of cell cycle arrest in human A549 cells assessed as accumulation of cells at G2/M phase at 50 nM incubated for 48 hrs by propidium iodide staining based flow cytometry analysis (Rvb=23.88%); assay type: functional
[29] = human, microsomes
Description: Metabolic stability in human liver microsome assessed as intrinsic clearance

A549 [30] = assay: Antitumor activity against human A549 cells xenografted in mouse model assessed as tumor growth inhibition at 100 mg/kg once daily via oral gavage administered for 28 days relative to control; assay type: functional; set-up: scale not given: the % may be the effect or the level left; conditions: time 28 day
A549 [31] = assay: Induction of cell cycle arrest in human A549 cells assessed as accumulation of cells at G2/M phase at 200 nM incubated for 48 hrs by propidium iodide staining based flow cytometry analysis (Rvb=23.88%); assay type: functional
A549 [32] = assay: Induction of cell cycle arrest in human A549 cells assessed as accumulation of cells at G2/M phase at 400 nM incubated for 48 hrs by propidium iodide staining based flow cytometry analysis (Rvb=23.88%); assay type: functional

CCCCCCN1CCC(CNC(=O)c2cccc(COCCC3CCN(c4nnc(NC(=O)Cc5ccccc5)s4)CC3)c2)CC1
Activity (A549 [1]): 67.53% | half-life (in vitro): > 2 h | Ratio (A549 [2]): 1.32 | IC50 (HCT-116 [3]): 420 nM | IC50 [4]: 68 nM | Activity (A549 [5]): 17.76% | CL [6]: 102 mL/min/kg | Ratio IC50 (Homo sapiens): > 100 | Activity (A549 [7]): 13.76% | Activity (A549 [8]): 13.17% | CL [9]: 557 mL/min/kg | Activity (A549 [10]): 20.673% | half-life [11]: 19.8 h | Activity (HCT-116 [12]): Active | IC50 (A549 [13]): 570 nM | Activity (A549 [14]): 16.368% | Activity (A549 [15]): 14.845% | inhibition (HCT-116 [16]): Active | Activity (A549 [17]): 16.025% | Cmax [18]: 699 ng/mL | Activity (A549 [19]): 17.3% | Activity (A549 [20]): 13.34% | Activity [21]: Non-Toxic | half-life [22]: 9.9 h | AUCt [23]: 251.6 ng·h/mL | inhibition (A549 [24]): Active | Activity (A549 [25]): 11.77% | Activity (HCT-116 [26]): Dose-Dependent Effect | Activity (A549 [27]): 66.93% | Activity (A549 [28]): 24.1% | CLH [29]: 15.6 g/mL/min | Activity (A549 [30]): 40.9% | Activity (A549 [31]): 19.72% | Activity (A549 [32]): 18.77%
